From ChEMBL document CHEMBL3091428, “Synthesis and initial biological evaluation of substituted 1-phenylamino-2-thio-4,5-dimethyl-1H-imidazole derivatives” (Bioorg Med Chem Lett, 2013)
≈ marks a conversion by molar mass, not a printed value.

Experiments:
RXF 393 = assay: Cytotoxicity against human RXF393 cells assessed as cell growth after 48 hrs by SRB assay relative to control; assay type: functional
MOLT-4 = assay: Cytotoxicity against human MOLT4 cells assessed as cell growth after 48 hrs by SRB assay relative to control; assay type: functional
HOP-92 = assay: Cytotoxicity against human HOP92 cells assessed as cell growth after 48 hrs by SRB assay relative to control; assay type: functional
Listeria monocytogenes = assay: Antimicrobial activity against Listeria monocytogenes ATCC 19115 after 24 hrs by broth microdilution method; assay type: functional; settings: ATCC 19115, 24 h
HOP-62 = assay: Cytotoxicity against human HOP62 cells assessed as cell growth after 48 hrs by SRB assay relative to control; assay type: functional
Escherichia coli [1] = assay: Antimicrobial activity against Escherichia coli ATCC 35218 after 24 hrs by broth microdilution method; assay type: functional; settings: ATCC 35218, 24 h
IGROV-1 = assay: Cytotoxicity against human IGROV1 cells assessed as cell growth after 48 hrs by SRB assay relative to control; assay type: functional
A498 = assay: Cytotoxicity against human A498 cells assessed as cell growth after 48 hrs by SRB assay relative to control; assay type: functional
HT-29 = assay: Cytotoxicity against human HT-29 cells assessed as cell growth after 48 hrs by SRB assay relative to control; assay type: functional
SK-OV-3 = assay: Cytotoxicity against human SKOV3 cells assessed as cell growth after 48 hrs by SRB assay relative to control; assay type: functional
HL-60(TB) = assay: Cytotoxicity against human HL-60(TB) cells assessed as cell growth after 48 hrs by SRB assay relative to control; assay type: functional
CCRF-CEM = assay: Cytotoxicity against human CCRF-CEM cells assessed as cell growth after 48 hrs by SRB assay relative to control; assay type: functional
SK-MEL-2 = assay: Cytotoxicity against human SK-MEL-2 cells assessed as cell growth after 48 hrs by SRB assay relative to control; assay type: functional
COLO 205 = assay: Cytotoxicity against human COLO205 cells assessed as cell growth after 48 hrs by SRB assay relative to control; assay type: functional
SR = assay: Cytotoxicity against human SR cells assessed as cell growth after 48 hrs by SRB assay relative to control; assay type: functional
786-0 = assay: Cytotoxicity against human 786-0 cells assessed as cell growth after 48 hrs by SRB assay relative to control; assay type: functional
RPMI-8226 = assay: Cytotoxicity against human RPMI8226 cells assessed as cell growth after 48 hrs by SRB assay relative to control; assay type: functional
UACC-62 = assay: Cytotoxicity against human UACC62 cells assessed as cell growth after 48 hrs by SRB assay relative to control; assay type: functional
SK-MEL-5 = assay: Cytotoxicity against human SK-MEL-5 cells assessed as cell growth after 48 hrs by SRB assay relative to control; assay type: functional
HCT-116 = assay: Cytotoxicity against human HCT116 cells assessed as cell growth after 48 hrs by SRB assay relative to control; assay type: functional
NCI-H23 = assay: Cytotoxicity against human NCI-H23 cells assessed as cell growth after 48 hrs by SRB assay relative to control; assay type: functional
Klebsiella pneumoniae = assay: Antimicrobial activity against Klebsiella pneumoniae ATCC 13883 after 24 hrs by broth microdilution method; assay type: functional; settings: ATCC 13883, 24 h
Escherichia coli [2] = assay: Antimicrobial activity against Escherichia coli ATCC 25922 after 24 hrs by broth microdilution method; assay type: functional; settings: ATCC 25922, 24 h
[3] = Cytotoxicity against human NCI-ADR-RES cells assessed as cell growth after 48 hrs by SRB assay relative to control; assay type: functional
KM12 = assay: Cytotoxicity against human KM12 cells assessed as cell growth after 48 hrs by SRB assay relative to control; assay type: functional
Enterococcus faecalis = assay: Antimicrobial activity against Enterococcus faecalis ATCC 29212 after 24 hrs by broth microdilution method; assay type: functional; settings: ATCC 29212, 24 h
M14 = assay: Cytotoxicity against human M14 cells assessed as cell growth after 48 hrs by SRB assay relative to control; assay type: functional
Candida albicans = assay: Antimicrobial activity against Candida albicans ATCC 90028 after 24 hrs by broth microdilution method; assay type: functional; settings: ATCC 90028, 24 h
SF-539 = assay: Cytotoxicity against human SF539 cells assessed as cell growth after 48 hrs by SRB assay relative to control; assay type: functional
[4] = Cytotoxicity against human OVCAR5 cells assessed as cell growth after 48 hrs by SRB assay relative to control; assay type: functional, OVCAR-5
Nakaseomyces glabratus = assay: Antimicrobial activity against Candida glabrata ATCC 90030 after 24 hrs by broth microdilution method; assay type: functional; settings: ATCC 90030, 24 h
Staphylococcus aureus = assay: Antimicrobial activity against Staphylococcus aureus ATCC 25923 after 24 hrs by broth microdilution method; assay type: functional; settings: ATCC 25923, 24 h
NCI-H226 = assay: Cytotoxicity against human NCI-H226 cells assessed as cell growth after 48 hrs by SRB assay relative to control; assay type: functional
SNB-75 = assay: Cytotoxicity against human SNB75 cells assessed as cell growth after 48 hrs by SRB assay relative to control; assay type: functional
SNB-19 = assay: Cytotoxicity against human SNB19 cells assessed as cell growth after 48 hrs by SRB assay relative to control; assay type: functional
SK-MEL-28 = assay: Cytotoxicity against human SK-MEL-28 cells assessed as cell growth after 48 hrs by SRB assay relative to control; assay type: functional
Pseudomonas aeruginosa = assay: Antimicrobial activity against Pseudomonas aeruginosa ATCC 27853 after 24 hrs by broth microdilution method; assay type: functional; settings: ATCC 27853, 24 h
DU-145 = assay: Cytotoxicity against human DU145 cells assessed as cell growth after 48 hrs by SRB assay relative to control; assay type: functional
PC-3 = assay: Cytotoxicity against human PC3 cells assessed as cell growth after 48 hrs by SRB assay relative to control; assay type: functional
K562 = assay: Cytotoxicity against human K562 cells assessed as cell growth after 48 hrs by SRB assay relative to control; assay type: functional
OVCAR-8 = assay: Cytotoxicity against human OVCAR8 cells assessed as cell growth after 48 hrs by SRB assay relative to control; assay type: functional
BT-549 = assay: Cytotoxicity against human BT549 cells assessed as cell growth after 48 hrs by SRB assay relative to control; assay type: functional
MDA-MB-231 = assay: Cytotoxicity against human MDA-MB-231 cells assessed as cell growth after 48 hrs by SRB assay relative to control; assay type: functional
NCI-H460 = assay: Cytotoxicity against human NCI-H460 cells assessed as cell growth after 48 hrs by SRB assay relative to control; assay type: functional
CAKI-1 = assay: Cytotoxicity against human Caki1 cells assessed as cell growth after 48 hrs by SRB assay relative to control; assay type: functional
HCC 2998 = assay: Cytotoxicity against human HCC2998 cells assessed as cell growth after 48 hrs by SRB assay relative to control; assay type: functional
MCF7 = assay: Cytotoxicity against human MCF7 cells assessed as cell growth after 48 hrs by SRB assay relative to control; assay type: functional
TK-10 = assay: Cytotoxicity against human TK10 cells assessed as cell growth after 48 hrs by SRB assay relative to control; assay type: functional

## Cc1nc(SCC(=O)c2ccc(Cl)cc2)n(Nc2ccccc2)c1C
RXF 393
  Activity: 96.88%
MOLT-4
  Activity: 87.31%
HOP-92
  Activity: 76.51%
Listeria monocytogenes
  MIC: 400 µg/mL (≈ 1080 µM)
HOP-62
  Activity: 101.2%
Escherichia coli [1]
  MIC: 400 µg/mL (≈ 1080 µM)
IGROV-1
  Activity: 102.1%
A498
  Activity: 82.14%
HT-29
  Activity: 99.26%
SK-OV-3
  Activity: 102.4%
HL-60(TB)
  Activity: 92.02%
CCRF-CEM
  Activity: 81.64%
SK-MEL-2
  Activity: 91.02%
COLO 205
  Activity: 96.15%
SR
  Activity: 86.04%
786-0
  Activity: 97.67%
RPMI-8226
  Activity: 92.33%
UACC-62
  Activity: 90.32%
SK-MEL-5
  Activity: 96.98%
HCT-116
  Activity: 90.7%
NCI-H23
  Activity: 89.25%
Klebsiella pneumoniae
  MIC: 800 µg/mL (≈ 2150 µM)
Escherichia coli [2]
  MIC: 800 µg/mL (≈ 2150 µM)
[3]
  Activity: 93.39%
KM12
  Activity: 105%
Enterococcus faecalis
  MIC: 200 µg/mL (≈ 538 µM)
M14
  Activity: 107.4%
Candida albicans
  MIC: 200 µg/mL (≈ 538 µM)
SF-539
  Activity: 103.9%
[4]
  Activity: 103.9%
Nakaseomyces glabratus
  MIC: 400 µg/mL (≈ 1080 µM)
Staphylococcus aureus
  MIC: 800 µg/mL (≈ 2150 µM)
NCI-H226
  Activity: 95.15%
SNB-75
  Activity: 94.11%
SNB-19
  Activity: 89%
SK-MEL-28
  Activity: 108.7%
Pseudomonas aeruginosa
  MIC: 400 µg/mL (≈ 1080 µM)
DU-145
  Activity: 115.8%
PC-3
  Activity: 91.86%
K562
  Activity: 88.1%
OVCAR-8
  Activity: 96.67%
BT-549
  Activity: 104.7%
MDA-MB-231
  Activity: 95.48%
NCI-H460
  Activity: 98.85%
CAKI-1
  Activity: 78.89%
HCC 2998
  Activity: 106.9%
MCF7
  Activity: 88.08%
TK-10
  Activity: 117.2%

## COc1ccc(C(=O)CSc2nc(C)c(C)n2Nc2ccccc2)cc1
RXF 393
  Activity: 85.48%
MOLT-4
  Activity: 89.96%
HOP-92
  Activity: 82.74%
Listeria monocytogenes
  MIC: 800 µg/mL (≈ 2180 µM)
HOP-62
  Activity: 100.7%
Escherichia coli [1]
  MIC: 800 µg/mL (≈ 2180 µM)
IGROV-1
  Activity: 103.3%
A498
  Activity: 90.87%
HT-29
  Activity: 94.25%
SK-OV-3
  Activity: 93.26%
HL-60(TB)
  Activity: 87.13%
CCRF-CEM
  Activity: 89.68%
SK-MEL-2
  Activity: 94.21%
COLO 205
  Activity: 100.5%
SR
  Activity: 83.4%
786-0
  Activity: 90.03%
RPMI-8226
  Activity: 94.68%
UACC-62
  Activity: 90.38%
SK-MEL-5
  Activity: 100.7%
HCT-116
  Activity: 96.71%
NCI-H23
  Activity: 88.38%
Klebsiella pneumoniae
  MIC: 800 µg/mL (≈ 2180 µM)
Escherichia coli [2]
  MIC: 400 µg/mL (≈ 1090 µM)
[3]
  Activity: 83.61%
KM12
  Activity: 97.97%
Enterococcus faecalis
  MIC: 400 µg/mL (≈ 1090 µM)
M14
  Activity: 91.19%
Candida albicans
  MIC: 400 µg/mL (≈ 1090 µM)
SF-539
  Activity: 100.8%
[4]
  Activity: 99.29%
Nakaseomyces glabratus
  MIC: 800 µg/mL (≈ 2180 µM)
Staphylococcus aureus
  MIC: 800 µg/mL (≈ 2180 µM)
NCI-H226
  Activity: 92.08%
SNB-75
  Activity: 93.05%
SNB-19
  Activity: 96.63%
SK-MEL-28
  Activity: 113.1%
Pseudomonas aeruginosa
  MIC: 200 µg/mL (≈ 544 µM)
DU-145
  Activity: 111.6%
PC-3
  Activity: 89.35%
K562
  Activity: 87.79%
OVCAR-8
  Activity: 100.7%
BT-549
  Activity: 84.66%
MDA-MB-231
  Activity: 89.05%
NCI-H460
  Activity: 96.54%
CAKI-1
  Activity: 81.41%
HCC 2998
  Activity: 93.49%
MCF7
  Activity: 105.7%
TK-10
  Activity: 109.3%

## Cc1nc(SCC(=O)c2ccccc2)n(Nc2ccccc2)c1C
RXF 393
  Activity: 103.1%
MOLT-4
  Activity: 100.2%
HOP-92
  Activity: 91.79%
Listeria monocytogenes
  MIC: 800 µg/mL (≈ 2370 µM)
HOP-62
  Activity: 97.72%
Escherichia coli [1]
  MIC: 800 µg/mL (≈ 2370 µM)
IGROV-1
  Activity: 98.59%
A498
  Activity: 91.12%
HT-29
  Activity: 97.65%
SK-OV-3
  Activity: 97.79%
HL-60(TB)
  Activity: 91%
CCRF-CEM
  Activity: 90.27%
SK-MEL-2
  Activity: 97.16%
COLO 205
  Activity: 110.9%
SR
  Activity: 82.35%
786-0
  Activity: 106.4%
RPMI-8226
  Activity: 102.2%
UACC-62
  Activity: 102.6%
SK-MEL-5
  Activity: 99.8%
HCT-116
  Activity: 86.93%
NCI-H23
  Activity: 93.43%
Klebsiella pneumoniae
  MIC: 800 µg/mL (≈ 2370 µM)
Escherichia coli [2]
  MIC: 800 µg/mL (≈ 2370 µM)
[3]
  Activity: 96.87%
KM12
  Activity: 104.6%
Enterococcus faecalis
  MIC: 800 µg/mL (≈ 2370 µM)
M14
  Activity: 101.1%
Candida albicans
  MIC: 400 µg/mL (≈ 1190 µM)
SF-539
  Activity: 104.4%
[4]
  Activity: 109.7%
Nakaseomyces glabratus
  MIC: 800 µg/mL (≈ 2370 µM)
Staphylococcus aureus
  MIC: 800 µg/mL (≈ 2370 µM)
NCI-H226
  Activity: 99.07%
SNB-75
  Activity: 108.2%
SNB-19
  Activity: 98.31%
SK-MEL-28
  Activity: 110.7%
Pseudomonas aeruginosa
  MIC: 200 µg/mL (≈ 593 µM)
DU-145
  Activity: 109.3%
PC-3
  Activity: 102%
K562
  Activity: 89.68%
OVCAR-8
  Activity: 99.29%
BT-549
  Activity: 88.93%
MDA-MB-231
  Activity: 98.84%
NCI-H460
  Activity: 104.4%
CAKI-1
  Activity: 88.11%
HCC 2998
  Activity: 110.5%
MCF7
  Activity: 96.9%
TK-10
  Activity: 127.6%
